The source of these data is PubChem BioAssay (NCI).

What all share (test): NCI-60 cell line screen, 48 h
Assay [1] has as its system 786-0 renal.
The test system of assay [2] is A549 NSCLC.
Assay [3] concerns ACHN renal.
In assay [4] the test system is BT-549 breast.
Assay [5] deals with CAKI-1 renal.
The subject of assay [6] is CCRF-CEM leukemia.
The subject of assay [7] is HCT-15 colon.
The test system of assay [8] is IGROV1 ovarian.
The test system of assay [9] is K-562 leukemia.
The test system of assay [10] is M14 melanoma.
The test system of assay [11] is MCF7 breast.
For assay [12], the system named is NCI-H226 lung.
In assay [13] the test system is NCI-H23 lung.
For assay [14], the system named is OVCAR-4 ovarian.
Assay [15] relates to RXF 393 renal.
The test system of assay [16] is UACC-257 melanoma.
In assay [17] the test system is UACC-62 melanoma.
In assay [18] the test system is UO-31 renal.

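The compound was tested at five concentrations on cells cultured in 96-well plates, with a 48-hour exposure period. TGI denotes the concentration required for complete inhibition of growth.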

Consider `COc1cc(OCc2nc3ccccc3n3cccc23)cc(OC)c1OC`, for which the TGI in [1] is greater than 74.3 µM; in assay [2] it was greater than 100 µM; in assay [3], greater than 100 µM; in assay [4] it was greater than 100 µM; in [5], greater than 100 µM; in [6], 25.4 µM. The TGI in assay [7] was greater than 100 µM; in [8] it was greater than 100 µM; in assay [9], 23.8 µM; in [10] it was greater than 78.3 µM; in assay [11], 37.6 µM; in [12] it was 52.4 µM. For the same compound, the TGI was greater than 100 µM in [13]; greater than 63 µM in assay [14]; greater than 100 µM in assay [15]; greater than 60.9 µM in assay [16]; greater than 72.3 µM in assay [17]; greater than 89.6 µM in assay [18].

As to `CCOC(=O)C(C(=O)OCC)=C1NC2(c3ccccc3Nc3ccc(C)cc32)C(C#N)S1` (configuration not stated), the TGI in assay [1] was 30.1 µM; in assay [2], 21.8 µM; in assay [3] it was 16.3 µM; in assay [4], 29.5 µM; in assay [5], 72 µM; in assay [6] it was greater than 100 µM. Moreover, the TGI came out at 29.5 µM in assay [7]; 27.2 µM in assay [8]; 25.8 µM in assay [9]; 17.6 µM in assay [10]; 11.9 µM in assay [11]; 25.3 µM in [12]. The TGI in assay [13] is 12.3 µM; in [14] it was 40.7 µM; in assay [15] it was 27.8 µM; in assay [16] it was 45.6 µM; in [17], 26.8 µM; in [18], 17.8 µM.

In the case of `O=C(N/N=C/c1ccc2c(c1)OCO2)Nc1ccccc1Cl`, the TGI in assay [1] is greater than 55 µM; in [2] it was greater than 100 µM; in assay [3] it was greater than 100 µM; in assay [4] it was 75.7 µM; in assay [5], greater than 100 µM; in assay [6] it was greater than 100 µM. Further, the TGI in assay [7] was greater than 100 µM; in [8], greater than 35.3 µM; in assay [9], greater than 100 µM; in assay [10] it was greater than 39.5 µM; in [11] it was greater than 100 µM; in assay [12], greater than 73.5 µM. The TGI in assay [13] was greater than 43.8 µM; in assay [14], greater than 100 µM; in [15], 12.2 µM; in [16], greater than 100 µM; in [17], greater than 83.1 µM; in [18], greater than 100 µM.

Consider `CC(C)=CCC[C@@H](C)C1=C(O)C(O)C(C)=C2N=C(c3ccccc3)C(=O)OC21` (some centres not stated), for which the TGI in assay [1] is greater than 20.5 µM; in [2], greater than 23 µM; in [3] it was greater than 13.7 µM; in assay [4] it was greater than 25 µM; in [5] it was 9.89 µM; in assay [6], greater than 5.47 µM. The TGI in assay [7] was greater than 25 µM; in assay [8] it was greater than 25 µM; in assay [9], greater than 25 µM; in assay [10], greater than 17.8 µM; in assay [11] it was greater than 25 µM; in [12], 6.94 µM. Besides, the TGI in [13] is 6.15 µM; in assay [14] it was greater than 25 µM; in assay [15] it was greater than 17.1 µM; in assay [16], greater than 25 µM; in [17] it was 5.95 µM; in assay [18], 14.6 µM.

Turning to `CC(C)(C)[Si](C)(C)O[C@@H](C(=O)OC1C=CCCC1)[C@@H](NC(=O)c1ccccc1)c1ccccc1` (some centres not stated), the TGI in [1] is greater than 100 µM; in assay [2], 94.9 µM; in assay [3], 62.9 µM; in assay [4], greater than 100 µM; in [5] it was greater than 100 µM; in assay [6], 32.5 µM. In addition, the TGI in assay [7] was greater than 100 µM; in [8] it was greater than 100 µM; in assay [9], 37 µM; in assay [11], 59.9 µM; in assay [12] it was greater than 100 µM; in assay [13] it was greater than 100 µM. Moreover, the TGI was greater than 100 µM in assay [14]; 34.3 µM in assay [15]; greater than 100 µM in [16]; greater than 100 µM in [17]; greater than 100 µM in assay [18].

For the compound `CC(=O)O[C@@H]1CC[C@@]2(C)C(CC[C@H]3[C@@H]4CC[C@H]([C@H](C)CCc5nc6ccc(C)cc6[nH]5)[C@@]4(C)CC[C@@H]32)C1` (some centres not stated), the TGI in [1] was greater than 100 µM; in assay [2], greater than 100 µM; in assay [3], greater than 100 µM; in assay [4] it was greater than 100 µM; in assay [5], greater than 100 µM; in [6], 8.47 µM. For the same compound, the TGI in [7] is greater than 100 µM; in assay [8] it was 19.1 µM; in [9] it was greater than 100 µM; in assay [10], greater than 100 µM; in assay [11], greater than 100 µM; in assay [12], 48.1 µM. Besides, the TGI in [13], in assay [14], in assay [15], in assay [16], in assay [17] and in assay [18] was greater than 100 µM throughout.

For `Cc1cc([C@H](C#N)c2nc3ccccc3[nH]2)nc(Cl)n1`, the TGI in [1], in [2], in assay [3], in assay [4], in assay [5] and in assay [6] was greater than 100 µM each time. In addition, the TGI in assay [7], in [8], in assay [9], in assay [11], in assay [12] and in assay [13] was greater than 100 µM in each case. The TGI in assay [14] is greater than 100 µM; in assay [15] it was greater than 100 µM; in assay [16], 71.4 µM; in assay [17], 65.3 µM; in assay [18], greater than 100 µM.

Turning to `CN(C)C=Nc1cccc2nsnc12`, the TGI in assay [1], in [2], in assay [3], in assay [4], in assay [5] and in assay [6] was greater than 100 µM each time. Further, the TGI in assay [7], in assay [8], in assay [9], in [10], in [11] and in assay [12] was greater than 100 µM each time. Moreover, the TGI in assay [13], in assay [14], in assay [15], in assay [16], in assay [17] and in [18] was greater than 100 µM each time.
